Here are results for twelve compounds from patent publication US7723364B2, “N-[2-(2-pyridinyl) ethyl]benzamide compounds and their use as fungicides” (Bayer Cropscience SA, priority 2003, dated 2010).

One data set relates to Pyrenophora teres. Put plainly: In vivo test on Pyrenophora teres (barley net blotch). To be noted: 288 h, dose of 330 ppm, barley plants sprayed 24 hours before contamination, grading 12 days after contamination vs control plants, read-out: good (at least 50%) or total protection. The protocol: In Vivo Test on Pyrenophora teres (Barley Net Blotch)
(§1) The active ingredient tested is prepared by potter homogenisation in a concentrated suspension type formulation at 100 g/l. This suspension is then diluted with water to obtain the desired active material concentration.
Barley plants (Express variety) in starter cups, sown on a 50/50 peat soil-pozzolana substrate and grown at 12° C., are treated at the 1-leaf stage (10 cm tall) by spraying with the aqueous suspension described above. Plants, used as controls, are treated with an aqueous solution not containing the active material.
After 24 hours, the plants are contaminated by spraying them with an aqueous suspension of Pyrenophora teres spores (12,000 spores per ml). The spores are collected from a 12-day-old culture. The contaminated barley plants are incubated for 24 hours at about 20° C. and at 100% relative humidity, and then for 12 days at 80% relative humidity.

Data set [1] concerns Erysiphe graminis f. sp. tritici. Nature of the data set: In vivo test on Erysiphe graminis f. sp. tritici (powdery mildew of wheat). The following applies: Blumeria graminis; dose of 330 ppm; wheat plants sprayed 24 hours before contamination; grading 7 to 14 days after contamination vs control plants; read-out: good (at least 50%) or total protection. How it is done:
In Vivo Test on Erysiphe graminis f. sp. tritici (Powdery Mildew of Wheat)
as §1
Wheat plants (Audace variety) in starter cups, sown on 50/50 peat soil-pozzolana substrate and grown at 12° C., are treated at the 1-leaf stage (10 cm tall) by spraying with the aqueous suspension described above.
(§2) Plants, used as controls, are treated with an aqueous solution not containing the active material.
After 24 hours, the plants are contaminated by dusting them with Erysiphe graminis f. sp. tritici spores, the dusting being carried out using diseased plants.
Grading is carried out 7 to 14 days after the contamination, in comparison with the control plants.
Under these conditions, good (at least 50%) or total protection is observed at a dose of 330 ppm with the following compounds: 1, 3, 4, 5, 6, 8, 9, 10, 11, 12, 13, 18, 38, 50, 43 and 45.

Another data set deals with Botrytis cinerea. Nature of the data set: In vivo test on Botrytis cinerea (cucumber grey mould). To be noted: Botrytis cinerea; dose of 330 ppm; cucumber plants sprayed 24 hours before contamination; grading 5/7 days after contamination vs control plants; read-out: good (at least 50%) or total protection. The protocol:
In Vivo Test on Botrytis cinerea (Cucumber Grey Mould)
as §1
Cucumber plants (Marketer variety) in starter cups, sown on a 50/50 peat soil-pozzolana substrate and grown at 18-20° C., are treated at the cotyledon Z11 stage by spraying with the aqueous suspension described above. Plants, used as controls, are treated with an aqueous solution not containing the active material.
After 24 hours, the plants are contaminated by depositing drops of an aqueous suspension of Botrytis cinerea spores (150,000 spores per ml) on upper surface of the leaves. The spores are collected from a 15-day-old culture and are suspended in a nutrient solution composed of:
The contaminated cucumber plants are settled for 5/7 days in a climatic room at 15-11° C. (day/night) and at 80% relative humidity.
Grading is carried out 5/7 days after the contamination, in comparison with the control plants. Under these conditions, good (at least 50%) or total protection is observed at a dose of 330 ppm with the following compounds: 1, 2, 3, 4, 5, 6, 9, 10, 13, 18, 21, 22, 23, 25, 26, 27, 28, 29, 32, 34, 35, 38, 40, 43, 44, 45, 46, 47, 50, 51, 52, 53, 57 and 62.

In another data set the test system is Alternaria brassicae. Put plainly: In vivo test on Alternaria brassicae (leaf spot of crucifers) on radish plants. The following applies: Alternaria brassicae; dose of 330 ppm; radish plants sprayed 24 hours before contamination; grading 6 to 7 days after contamination vs control plants; read-out: good (at least 50%) or total protection. The protocol:
In Vivo Test on Alternaria brassicae (Leaf Spot of Crucifers)
as §1
Radish plants (Pernot variety) in starter cups, sown on a 50/50 peat soil-pozzolana substrate and grown at 18-20° C., are treated at the cotyledon stage by spraying with the aqueous suspension described above.
as §2
After 24 hours, the plants are contaminated by spraying them with an aqueous suspension of Alternaria brassicae spores (40,000 spores per cm^3). The spores are collected from a 12 to 13 days-old culture.
The contaminated radish plants are incubated for 6-7 days at about 18° C., under a humid atmosphere.
Grading is carried out 6 to 7 days after the contamination, in comparison with the control plants.

Bounds are passed on as bounds.

For `Cc1cc(Br)cnc1CCNC(=O)c1ccccc1C(F)(F)F` [Compound 18], the pest or weed control at 330 ppm (in the data set with Pyrenophora teres; in data set [1]; in the data set on Botrytis cinerea; in the data set on Alternaria brassicae) was ≥ 50% in each case.
Turning to `Cc1ccccc1C(=O)NCCc1ncc(Cl)cc1Cl` [Compound 3], the pest or weed control at 330 ppm (in the data set on Pyrenophora teres; in data set [1]; in the data set with Botrytis cinerea; in the data set with Alternaria brassicae) was ≥ 50% in each case.
Turning to `O=C(NCCc1ncc(Cl)cc1F)c1ccccc1C(F)(F)F` [Compound 10], the pest or weed control at 330 ppm (with Pyrenophora teres; in data set [1]; in the data set with Botrytis cinerea; in the data set on Alternaria brassicae) was ≥ 50% throughout.
Turning to `O=C(NCCc1nc(F)ccc1Cl)c1ccccc1C(F)(F)F` [Compound 13], the pest or weed control at 330 ppm (with Pyrenophora teres; in data set [1]; with Botrytis cinerea; with Alternaria brassicae) was ≥ 50% throughout.
Consider `O=C(NCCc1ncc(Cl)cc1Cl)c1ccccc1C(F)(F)F` [Compound 1, N-[2-(3,5-dichloro-2-pyridinyl)ethyl]-2-(trifluoromethyl)benzamide], for which the melting point amounted to 118 °C. Further, the pest or weed control at 330 ppm in the data set with Pyrenophora teres was ≥ 50%. Further, the pest or weed control at 330 ppm in data set [1] was ≥ 50%. In addition, in the data set with Botrytis cinerea, the pest or weed control at 330 ppm is ≥ 50%. Further, the pest or weed control at 330 ppm in the data set on Alternaria brassicae is ≥ 50%.
For `O=C(NCCc1ncccc1Cl)c1ccccc1C(F)(F)F` [Compound 6, N-[2-(3-chloro-2-pyridinyl)ethyl]-2-(trifluoromethyl)benzamide], the pest or weed control at 330 ppm (in data set [1]; in the data set on Botrytis cinerea; with Alternaria brassicae) was ≥ 50% in each case.
In the case of `O=C(NCCc1ncc(Cl)cc1Cl)c1ccccc1I` [Compound 5, N-[2-(3,5-dichloro-2-pyridinyl)ethyl]-2-(iodo)benzamide], the melting point was determined as 133 °C. In the data set with Pyrenophora teres, the pest or weed control at 330 ppm was ≥ 50%. In addition, the pest or weed control at 330 ppm in data set [1] is ≥ 50%. In addition, the pest or weed control at 330 ppm in the data set on Botrytis cinerea was ≥ 50%. The pest or weed control at 330 ppm in the data set with Alternaria brassicae is ≥ 50%.
As to `Cc1ccc(CCNC(=O)c2ccccc2C(F)(F)F)nc1` [Compound 9], the pest or weed control at 330 ppm (in the data set on Pyrenophora teres; in data set [1]; in the data set on Botrytis cinerea; in the data set with Alternaria brassicae) was ≥ 50% throughout.
On to `Cc1c(F)c(F)nc(CCNC(=O)c2ccccc2I)c1F` [Compound 43], for which the pest or weed control at 330 ppm (in the data set on Pyrenophora teres; in data set [1]; in the data set on Botrytis cinerea; in the data set on Alternaria brassicae) was ≥ 50% in each case.
On to `O=C(NCCc1ncc(Cl)cc1Br)c1ccccc1C(F)(F)F` [Compound 38], for which the pest or weed control at 330 ppm (in the data set on Pyrenophora teres; in data set [1]; in the data set with Botrytis cinerea; in the data set with Alternaria brassicae) was ≥ 50% each time.
With `O=C(NCCc1nc(F)c(F)cc1F)c1ccccc1C(F)(F)F` [Compound 12], the pest or weed control at 330 ppm (in the data set on Pyrenophora teres; in data set [1]; with Alternaria brassicae) was ≥ 50% throughout.
Take `O=C(NCCc1nc(F)c(F)cc1F)c1ccccc1I` [Compound 45]: the pest or weed control at 330 ppm (in the data set with Pyrenophora teres; in data set [1]; in the data set with Botrytis cinerea; in the data set with Alternaria brassicae) was ≥ 50% each time.
